From patent publication US9695172B2, “Diazepane derivatives and uses thereof” (Dana-Farber Cancer Institute, Inc., priority 2014, dated 2017)
Read-outs that look alike come from different tables or passages of the source.

Key:
MV411 = assay: Cellular assay, cell viability (ATPlite), MV411; format: cell-based; conditions: MV411 cell line
Experimental: (§1) The compounds of the invention are also evaluated in the BRD4 dependant cell line for the cellular activity to generate cellular IC50 values.
(§2) Cells (e.g., BRD4 dependant cells) were counted and adjusted to 60,000 cells/mL. Using a Biotek EL406, 50 μL of the cells in media were distributed into 384 well white plates from Thermo. Immediately after plating, compounds of the invention in DMSO were distributed to plates. For large plate sets, cells were returned to a 37° C. incubator while not in use. The compounds were added to plates using a 100 nL 384 well pin transfer manifold on a Janus workstation. Stocks were arrayed in 10 point quadruplicate dose response in DMSO stock in 384-well Greiner compound plates. After addition of the compounds, plates were incubated for three days in a 37° C. incubator. Cell viability was read out using ATPlite from Perkin Elmer. Plates were removed from the incubator and brought to room temperature prior to use. Lyophilized powder was resuspended in lysis buffer and diluted 1:2 with DI water. 25 μL of this solution was added to each well using the Biotek liquid handler. Plates were sealed with adherent aluminum seals prior to vortexing and spinning down at 1000 g for 1 minute. Plates were incubated for 15 minutes at room temperature before signal was read on an Envision Plate Reader.

BRD4 = BRD4 (Homo sapiens (Human), UniProt O60885); assay: BRD4 IC50 (acetyl-histone binding assay)
Experimental: (§3) Assays were performed with minor modifications from the manufacturer's protocol (PerkinElmer, USA). All reagents were diluted in 50 mM HEPES, 150 mM NaCl, 0.1% w/v BSA, and 0.01% w/v Tween 20 at pH 7.5 and allowed to equilibrate to room temperature prior to addition to plates. After addition of Alpha beads to master solutions, all subsequent steps were performed in low light conditions. […] Addition to wells was performed with either a multichannel pipet (for optimization experiments) or a Biotek EL406 liquid handler. After a 1000-rpm spin-down for 1 minute, 100 nL of the solutions of the compounds of the invention from stock plates were added by pin transfer using a Janus Workstation (PerkinElmer, USA). The streptavidin-coated donor beads (25 μg/ml final) were added as with previous solution in a 2×, 10 μL volume. Following this addition, the plates were sealed with foil to block light exposure and to prevent evaporation. The plates were spun down again at 1000 rpm for 1 minute. Next, the plates were incubated in the room with the plate reader (for temperature equilibration) for 1.5 hour prior to reading the assay.

797 = assay: Cellular assay, cell viability (ATPlite), 797; format: cell-based; conditions: 797 cell line
Experimental: as §1, §2

NOMO-1 = assay: Cellular assay, cell viability (ATPlite), NOMO-1; format: cell-based; conditions: NOMO-1 cell line
Experimental: as §1, §2

AURKB = AURKB (Homo sapiens (Human), UniProt Q96GD4); assay: AURKB IC50; format: biochemical
AURKA = AURKA (Homo sapiens (Human), UniProt O14965); assay: AURKA IC50; format: biochemical
MOLM-13 = assay: Cellular assay, cell viability (ATPlite), MOLM-13; format: cell-based; conditions: MOLM-13 cell line
Experimental: as §1, §2

AURKC = AURKC (Homo sapiens (Human), UniProt Q9UQB9); assay: AURKC IC50; format: biochemical
BRDT = BRDT (Homo sapiens (Human), UniProt Q58F21); assay: BRDT IC50; format: binding
Experimental: as §3

LRRK2 = LRRK2 (Homo sapiens (Human), UniProt Q5S007); assay: LRRK2 IC50; format: biochemical
TF-1 = assay: Cellular assay, cell viability (ATPlite), TF-1; format: cell-based; conditions: TF-1 cell line
Experimental: as §1, §2

Kasumi-1 = assay: Cellular assay, cell viability (ATPlite), Kasumi-1; format: cell-based; conditions: Homo sapiens; Kasumi-1 cell line
Experimental: as §1, §2

[1] = first BRD4 value listed for the compound
[2] = second BRD4 value listed for the compound

Chain of LRRK2 (Q5S007 whole entry): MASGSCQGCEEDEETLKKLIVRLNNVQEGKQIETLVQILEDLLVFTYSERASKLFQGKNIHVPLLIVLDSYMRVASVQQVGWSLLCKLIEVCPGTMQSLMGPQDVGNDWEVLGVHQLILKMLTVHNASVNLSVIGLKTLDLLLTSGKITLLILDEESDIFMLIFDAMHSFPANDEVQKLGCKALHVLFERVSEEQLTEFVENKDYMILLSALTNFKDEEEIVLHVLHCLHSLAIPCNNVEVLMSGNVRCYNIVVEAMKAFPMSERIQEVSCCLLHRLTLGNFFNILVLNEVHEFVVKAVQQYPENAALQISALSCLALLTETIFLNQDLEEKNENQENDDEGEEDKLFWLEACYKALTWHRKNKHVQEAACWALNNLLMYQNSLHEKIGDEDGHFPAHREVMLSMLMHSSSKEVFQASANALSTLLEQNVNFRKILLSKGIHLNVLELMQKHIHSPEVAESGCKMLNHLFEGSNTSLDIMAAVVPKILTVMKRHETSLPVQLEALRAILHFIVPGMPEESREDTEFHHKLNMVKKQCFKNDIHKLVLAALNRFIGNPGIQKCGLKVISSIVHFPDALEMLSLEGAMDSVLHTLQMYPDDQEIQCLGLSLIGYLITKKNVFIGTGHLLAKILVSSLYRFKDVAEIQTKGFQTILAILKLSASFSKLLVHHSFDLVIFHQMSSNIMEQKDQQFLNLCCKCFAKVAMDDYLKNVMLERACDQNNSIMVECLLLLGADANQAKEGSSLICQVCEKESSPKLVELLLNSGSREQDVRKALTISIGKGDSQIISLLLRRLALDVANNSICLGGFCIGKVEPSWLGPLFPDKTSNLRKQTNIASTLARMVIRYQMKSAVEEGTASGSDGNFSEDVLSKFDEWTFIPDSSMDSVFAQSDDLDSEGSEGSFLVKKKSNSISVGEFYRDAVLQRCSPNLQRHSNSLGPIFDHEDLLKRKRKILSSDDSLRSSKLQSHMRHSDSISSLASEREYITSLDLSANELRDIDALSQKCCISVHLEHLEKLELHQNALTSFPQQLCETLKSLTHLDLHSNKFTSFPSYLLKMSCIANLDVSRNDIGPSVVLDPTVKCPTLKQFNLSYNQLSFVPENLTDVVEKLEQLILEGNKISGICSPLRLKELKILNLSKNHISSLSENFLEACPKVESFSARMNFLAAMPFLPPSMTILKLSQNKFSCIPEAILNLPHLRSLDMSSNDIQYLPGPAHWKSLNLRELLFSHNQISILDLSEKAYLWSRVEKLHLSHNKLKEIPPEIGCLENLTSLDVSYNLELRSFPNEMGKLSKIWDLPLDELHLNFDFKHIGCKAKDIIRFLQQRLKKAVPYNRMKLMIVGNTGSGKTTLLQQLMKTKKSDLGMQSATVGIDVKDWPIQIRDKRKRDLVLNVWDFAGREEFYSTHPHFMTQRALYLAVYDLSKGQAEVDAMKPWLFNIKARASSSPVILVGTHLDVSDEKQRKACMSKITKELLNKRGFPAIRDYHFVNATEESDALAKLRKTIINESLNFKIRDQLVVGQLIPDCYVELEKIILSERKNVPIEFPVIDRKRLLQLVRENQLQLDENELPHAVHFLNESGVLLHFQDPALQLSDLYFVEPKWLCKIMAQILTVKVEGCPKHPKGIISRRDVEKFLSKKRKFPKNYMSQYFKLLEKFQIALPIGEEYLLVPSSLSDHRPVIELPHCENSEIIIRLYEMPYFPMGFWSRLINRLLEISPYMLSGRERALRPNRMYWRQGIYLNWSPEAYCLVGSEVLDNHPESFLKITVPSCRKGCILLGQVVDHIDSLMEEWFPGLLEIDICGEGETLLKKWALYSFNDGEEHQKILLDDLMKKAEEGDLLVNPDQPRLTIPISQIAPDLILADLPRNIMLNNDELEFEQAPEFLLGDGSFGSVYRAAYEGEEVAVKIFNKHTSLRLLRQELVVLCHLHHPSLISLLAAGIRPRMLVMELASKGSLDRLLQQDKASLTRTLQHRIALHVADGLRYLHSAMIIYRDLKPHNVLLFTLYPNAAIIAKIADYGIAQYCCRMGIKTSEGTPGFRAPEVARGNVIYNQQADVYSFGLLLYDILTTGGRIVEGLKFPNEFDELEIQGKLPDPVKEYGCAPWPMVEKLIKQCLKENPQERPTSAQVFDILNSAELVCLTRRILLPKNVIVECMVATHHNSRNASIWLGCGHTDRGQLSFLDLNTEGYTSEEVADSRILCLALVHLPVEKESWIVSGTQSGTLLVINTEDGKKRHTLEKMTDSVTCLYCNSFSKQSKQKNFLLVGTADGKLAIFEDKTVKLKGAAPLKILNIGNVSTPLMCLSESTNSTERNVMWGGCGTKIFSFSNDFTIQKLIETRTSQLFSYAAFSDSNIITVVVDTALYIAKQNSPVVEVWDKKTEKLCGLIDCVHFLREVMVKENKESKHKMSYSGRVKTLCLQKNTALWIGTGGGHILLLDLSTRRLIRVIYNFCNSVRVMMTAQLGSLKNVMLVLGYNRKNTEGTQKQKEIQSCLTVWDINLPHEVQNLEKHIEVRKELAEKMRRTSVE
Chain of AURKC (Q9UQB9 whole entry): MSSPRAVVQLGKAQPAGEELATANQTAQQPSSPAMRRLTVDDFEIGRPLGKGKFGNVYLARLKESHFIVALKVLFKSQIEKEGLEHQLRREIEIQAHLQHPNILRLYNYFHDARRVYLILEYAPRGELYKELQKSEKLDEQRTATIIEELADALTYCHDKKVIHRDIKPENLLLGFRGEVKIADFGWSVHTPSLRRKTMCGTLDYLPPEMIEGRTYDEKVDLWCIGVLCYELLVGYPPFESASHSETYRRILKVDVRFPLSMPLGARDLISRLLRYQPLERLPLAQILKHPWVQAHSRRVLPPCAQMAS
Chain of AURKB (Q96GD4 whole entry): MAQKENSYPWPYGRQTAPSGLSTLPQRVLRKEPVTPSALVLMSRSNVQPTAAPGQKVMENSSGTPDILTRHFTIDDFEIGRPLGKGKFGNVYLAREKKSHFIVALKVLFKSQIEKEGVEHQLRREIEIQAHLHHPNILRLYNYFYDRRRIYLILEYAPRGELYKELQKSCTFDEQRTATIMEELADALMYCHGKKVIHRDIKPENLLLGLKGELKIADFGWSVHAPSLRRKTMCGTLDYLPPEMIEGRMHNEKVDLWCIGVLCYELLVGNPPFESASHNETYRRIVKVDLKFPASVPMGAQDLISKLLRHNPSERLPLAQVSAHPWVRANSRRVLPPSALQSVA
Chain of AURKA (O14965 whole entry): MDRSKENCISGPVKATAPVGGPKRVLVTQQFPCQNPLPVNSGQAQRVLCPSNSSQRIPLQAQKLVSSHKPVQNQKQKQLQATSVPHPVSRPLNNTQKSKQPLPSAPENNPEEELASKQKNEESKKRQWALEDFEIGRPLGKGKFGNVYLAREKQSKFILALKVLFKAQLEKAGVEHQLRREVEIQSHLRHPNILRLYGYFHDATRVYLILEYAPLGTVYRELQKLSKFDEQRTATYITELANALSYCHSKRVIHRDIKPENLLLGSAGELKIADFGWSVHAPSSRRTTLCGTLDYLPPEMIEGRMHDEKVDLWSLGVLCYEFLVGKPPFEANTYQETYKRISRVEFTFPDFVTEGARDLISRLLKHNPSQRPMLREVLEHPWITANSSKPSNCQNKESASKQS

SMILES	IC50 (MV411)	IC50 (BRD4; [1])	IC50 (BRD4; [2])	IC50 797	IC50 (NOMO-1)	IC50 (AURKB)	IC50 (AURKA)	IC50 (MOLM-13)	IC50 (AURKC)	IC50 (BRDT)	IC50 (LRRK2)	IC50 (MV411; Homo sapiens, MV4-11)	IC50 (NOMO-1; Homo sapiens)	IC50 (MOLM-13; Homo sapiens)	IC50 (BRD4)	TF-1 IC50 (TF-1; result in words)	IC50 (Kasumi-1)	IC50 (TF-1; Homo sapiens)
CN1C(=O)c2ccccc2N(C)c2nc(Nc3ccc(S(N)(=O)=O)cc3)ccc21 [Compound 2-221]	3250 nM	2990 nM	3270 nM	9.28 µM	> 20 µM	> 10 µM	> 10 µM	10.9 µM	> 10 µM	5.66 µM								
COc1cc(C(=O)NC2CCN(C)CC2)ccc1Nc1ccc2c(n1)N(C)c1ccccc1C(=O)N2C [Compound 2-227]	1950 nM	2140 nM	1870 nM	5.76 µM	6.36 µM			4.25 µM		5.41 µM	> 10 µM							
COc1cc(C(=O)N2CCC(N3CCN(C)CC3)CC2)ccc1Nc1ccc2c(n1)N(C)c1ccccc1C(=O)N2C [Compound 3]		1370 nM	813 nM	2.49 µM						3.68 µM	> 10 µM	1420 nM	7.23 µM	2.92 µM				
C[C@@H](Oc1cc(-n2cnc3ccc(CN4CCN(C)CC4)cc32)sc1C(N)=O)c1ccccc1C(F)(F)F [GSK461364, reference compound]										> 50 µM					> 50000 nM	poor convergence		
Cc1sc2c(c1C)C(c1ccc(Cl)cc1)=N[C@@H](CC(=O)OC(C)(C)C)c1nnc(C)n1-2 [JQ1, reference compound]				0.092 µM								65.6 nM	0.172 µM	0.0892 µM			48.8 nM	109 nM
